Test results reported in patent publication US20220162257A1, “3ALPHA, 5BETA-NEUROACTIVE STEROIDS FOR THE TREATMENT OF EPILEPSY AND SEIZURE DISEASES” (USTAV ORGANICKE CHEMIE A BIOCHEMIE AV CR, V. V. I., priority 2019, published 2022).

How the values were obtained:
[1] = system: PTZ-induced seizures in zebrafish (Danio rerio); test: pentetrazol (PTZ)-induced seizures in zebrafish larvae; type: in vivo; details: 7 dpf larvae, PTZ 5 mmol/L
Experimental: Adults wild-type (strain AB) zebrafish (Danio rerio) were maintained at 28-29° C. on a light cycle of 14 h light:10h dark (lights on at 7 am; lights off at 9 pm) at ZeClinics animal facility (Barcelona). All procedures involving animals and their care were conducted accordingly to CEA-OH/9421/2 authorization from Government of Catalonia. Embryos obtained by pairwise mating were raised in E3 media at the controlled temperature of 28.5° C. until 7 days post-fertilization (dpf) when the experiments were performed.
The anticonvulsant activity of the claimed compounds on the nervous system of zebrafish (Danio rerio). This test is the modern alternative to tests in adult animals as Danio rerio is very versatile organism that has a number of physiological similarities to mammals, including humans (Expert Opin. Drug Metab. Toxicol. 2009, 5, 393). Steroidal compounds were tested in three concentrations (1, 3 and 5 μmol.L^−1) on 7 days post-fertilization (dpf) wild-type larvae. As a negative control, sibling larvae were incubated with DMSO 1%, which allows us to detect behavioral alterations of PTZ treated larvae. Seizures were induced by treatment of pentetrazol (PTZ) at the dose 5 mmol.L^−1. Commercially available anti-convulsant drug Topiramate was used as comparator. Results were analyzed with GraphPad Prism software and statistical significance is assessed by the One-way ANOVA statistical analysis followed by Tukey's multiple comparisons test. The zebrafish larvae locomotion and response to visual stimuli are traced and analyzed by the EthoVision XT 12 software and the DanioVision device from Noldus Information Technologies, Wageningen, The Netherlands.
This closed system consists of a camera placed above a chamber with circulating water and a temperature sensor that is set at 28° C. Individualized larvae in a 48-wells plate are placed in the chamber, which can provide different stimuli (light/dark environment, tapping, sound) controlled by the software. Prior to each experiment, larvae were left for 10 minutes in dark for acclimation, then predetermined series of alternating dark and light environment are presented to the larvae. The final experimental protocol is divided in three main part: first a 15 minutes step with light on, then a series of 5 short flashes of light to induce epileptic seizures and finally a 25 minutes dark/light alternating environments phase. Different sets of information can be extrapolated from the different phases: while the first step is useful to detect changes in the total larvae locomotion, the second part allows us to analyze the larval response to a seizure-inducing visual stimulus and measure the seizure characteristics: the maximum velocity and the number of angles turns (specific of seizure erratic movement). The final phase is useful to detect anomalies in larval movement and deviations from the stereotyped behavior (natural locomotor behavior of zebrafish is active in dark and immobile in light). The anticonvulsant effect of compounds was studied at doses of […] for the compound shown in Example 1, Example 2 and Example 3.

[2] = system: generalized tonic-clonic seizures in adult rats; test: seizures in young adult (P60) rats, FIGS. 6A-6C; type: in vivo, rat
Experimental: FIGS. 6A-6C show anticonvulsant effect of a substance from Example 1 in a model of seizures elicited by 6 Hz transcorneal electrical stimulation in young adult (P60) male rats. Steroid substance in dose 1, 5, or 10 mg/kg i.p. (x-axis) was administered 20 min before the first stimulation. Graph 6A (y-axis in %)—incidence of complete (GTCS) and incomplete, i.e. without the tonic phase (GCS) generalized seizures; graph 6B (y-axis in %)—incidence of minimal clonic seizures; graph 6C (y-axis in s)—latencies of generalized seizures.
(§1) Anticonvulsant effect of compounds was evaluated in two models of epileptic seizures in immature rats (PTZ model and 6 Hz model). PTZ convulsions were tested in 12- and 25-day-old rats, 6 Hz-induced seizures in 15- and 25-day-old rats. Young adult rats (P60) were also used in either test. Day of birth was taken as P0. Experiments evaluating precognitive effect were performed in adult male rats of the Wistar and Long Evans strain (3 months old, b.w. 300-400 g). All animals were obtained from a breeding facility of Institute of Physiology CAS (certificate No. 1396/2014-MZE-17214) Animals were held in standard conditions (21±1° C., humidity 50-60%, light regime 12/12) with unrestricted access to food and water. All manipulations with animals were performed according to the https://nc3rs.org.uk/arrive-guidelines and to Czech Animal Protection Law 246/1992 Sb. And international directives (EU Directive 2010/63/EU for animals' experiments).
GTCS were present in only one rat after the 10-mg/kg dose.

latency to feed in rats = test: Novelty suppressed feeding model (NSF); type: in vivo, rat
Experimental: as §1
Behavioral models of the affective disorders are based on exposure to stress. Two behavioral tests were performed: the Elevated plus maze test (EPM, Nat. Protoc. 2007, 2, 322) and the Novelty suppressed feeding model (NSF, Interdiscip. Toxicol. 2017, 10, 40).
In the NSF test, the Compound from Example 1 was administered i.p. 30 min before the test at doses 0.1; 0.3; 1; 3 and 10 mg/kg.

memory in rats = test: Passive avoidance test, intact animals and dizocilpine (MK-801) schizophrenia-like behavior; type: in vivo, rat
Experimental: as §1
Schizophrenia-like behavior was induced by i.p. administration of dizocilpine (MK-801) at a dose of 0.1 mg/kg. The effect of the Compound from Example 1 was tested in Passive avoidance test (Psychopharmacology (Berl). 2016, 233, 2077). This test allows to study memory and learning ability. The Compound from Example 1 was applied for 30 min i.p. before the task in doses of 0.1; 1 and 3 mg/kg.

## CC(=O)[C@H]1CC[C@H]2[C@@H]3CC[C@@H]4C[C@H](OC(=O)C5CCC(=O)N5)CC[C@]4(C)[C@H]3CC[C@]12C (stereo partly drawn) [Example 1, (3R,5R,8R,9S,10S,13S,14S,17S)-17-Acetyl-10,13-dimethylhexadecahydro-1H-cyclopenta[a]fenantren-3-yl 5-oxopyrrolidine-2-carboxylate]
[1]; doses of 1, 3 and 5 mg/kg
  epileptiform locomotor activity in the dark phase/light test, sedation: decreased epileptiform locomotor activity in the dark phase/light test without causing sedation
[1]; doses of 1, 3 and 5 mg/kg (1, 3 and 5 μmol/L in the source)
  locomotor activity epileptiform induced by PTZ (spontaneous locomotor activity, maximum velocity, angle turns): significantly reduced the locomotor activity epileptiform induced by PTZ
[2]; 5 mg/kg i.p.
  latency to GTCS: significantly decreased
[2]; 10 mg/kg i.p.
  animals with GTCS: only one rat
  incidence of generalized tonic-clonic seizures (GTCS): significantly decreased the incidence
  minimal clonic seizures: remained unaffected
[2]; 5 and 10 mg/kg i.p.
  seizure severity: significantly decreased
Latency to feed in rats; 0.3 mg/kg i.p., 30 min before the test
  latency to feed (anxiolytic parameter): significant decrease in latency to feed
Latency to feed in rats; 1 and 3 mg/kg i.p.
  latency of feed intake: trend to decrease the latency of feed intake
Memory in rats; dizocilpine 0.1 mg/kg, compound 0.1 mg/kg i.p.
  memory damage measured 1 h after the stimulus: prevented memory damage
Memory in rats; intact animals, 0.1, 1 and 3 mg/kg i.p.
  memory one hour after the aversive stimulus: does not impair memory
